In the oligonucleotide strings, read from the 5' end, every base follows the letter of its sugar. An asterisk marks phosphorothioate; unmarked linkages are phosphodiester. Other units and linkages are bracketed, terminal groups are in braces. A string of capitals states the bases alone. d = 2'-deoxy (DNA); m = 2'-O-methyl

The data set addresses T1, human TLR9 (Homo sapiens, UniProt Q9NR96).
T1 construct: HA; host or cells: 293XL-hTLR9-HA (HEK293)
T1 sequence (Q9NR96 26-1032): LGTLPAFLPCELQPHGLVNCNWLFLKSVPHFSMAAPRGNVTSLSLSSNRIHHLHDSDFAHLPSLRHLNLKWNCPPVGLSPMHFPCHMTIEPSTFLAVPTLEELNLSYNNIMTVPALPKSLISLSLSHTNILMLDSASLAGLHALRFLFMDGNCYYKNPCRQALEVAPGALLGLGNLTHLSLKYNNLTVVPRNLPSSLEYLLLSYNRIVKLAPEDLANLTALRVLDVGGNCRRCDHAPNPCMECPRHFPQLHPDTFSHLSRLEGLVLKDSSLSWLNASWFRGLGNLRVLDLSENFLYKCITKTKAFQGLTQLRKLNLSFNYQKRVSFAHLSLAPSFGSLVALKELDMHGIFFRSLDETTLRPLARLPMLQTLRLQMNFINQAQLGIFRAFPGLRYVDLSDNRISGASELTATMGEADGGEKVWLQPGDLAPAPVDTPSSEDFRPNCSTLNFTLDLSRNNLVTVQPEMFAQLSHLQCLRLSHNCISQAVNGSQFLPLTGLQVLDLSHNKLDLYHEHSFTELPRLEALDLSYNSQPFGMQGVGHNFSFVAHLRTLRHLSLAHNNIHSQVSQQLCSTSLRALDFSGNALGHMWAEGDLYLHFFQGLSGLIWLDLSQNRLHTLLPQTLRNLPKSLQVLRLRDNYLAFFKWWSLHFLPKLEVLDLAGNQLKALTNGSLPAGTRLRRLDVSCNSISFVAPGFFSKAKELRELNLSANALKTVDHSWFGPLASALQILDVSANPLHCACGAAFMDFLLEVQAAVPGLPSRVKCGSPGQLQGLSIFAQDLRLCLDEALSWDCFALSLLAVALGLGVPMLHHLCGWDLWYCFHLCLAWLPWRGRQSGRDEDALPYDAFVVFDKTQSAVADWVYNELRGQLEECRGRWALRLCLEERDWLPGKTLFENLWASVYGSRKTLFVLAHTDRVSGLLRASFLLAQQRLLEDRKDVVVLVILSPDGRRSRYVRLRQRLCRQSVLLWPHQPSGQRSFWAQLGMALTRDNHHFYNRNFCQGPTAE
Kind of data set: HEK-TLR9 NF-κB-luciferase reporter, ODN2006 stimulation. The note with it: HEK-TLR9; 500 nM ASO 45 min, then 200 nM ODN2006 overnight; percentage of ODN2006 only. The class given is cell-based.
For “mC*mA*mC*mU*mG*T*A*T*T*T*T*A*T*T*A*mC*mA*mG*mA*mA (mC*mA*mC*mU*mG*dT*dA*dT*dT*dT*dT*dA*dT*dT*dA*mC*mA*mG*mA*mA; antisense) [[LINC-PINT]2990]”, the “TLR9-500 nM: averaged NF-κB-Luciferase relative to ODN2006” value stood at 117.42%.

As for “mC*mA*mG*mG*mC*C*T*C*C*A*G*T*G*T*C*mU*mU*mC*mU*mC (mC*mA*mG*mG*mC*dC*dT*dC*dC*dA*dG*dT*dG*dT*dC*mU*mU*mC*mU*mC; antisense) [[CDKN2B-AS1]2219]”, the “TLR9-500 nM: averaged NF-κB-Luciferase relative to ODN2006” value worked out at 66.99%.

In the case of “mC*mA*mU*mC*mC*C*T*T*C*T*G*C*T*G*C*mC*mA*mA*mG*mC (mC*mA*mU*mC*mC*dC*dT*dT*dC*dT*dG*dC*dT*dG*dC*mC*mA*mA*mG*mC; antisense) [[LINC-PINT]98]”, the “TLR9-500 nM: averaged NF-κB-Luciferase relative to ODN2006” value was 65.09%.

Regarding “mC*mC*mA*mU*mC*C*C*T*T*C*T*G*C*T*G*mC*mC*mA*mA*mG (mC*mC*mA*mU*mC*dC*dC*dT*dT*dC*dT*dG*dC*dT*dG*mC*mC*mA*mA*mG; antisense) [ILING-PINT199]”, the “TLR9-500 nM: averaged NF-κB-Luciferase relative to ODN2006” value is 92.72%.

Consider “mC*mC*mA*mU*mG*T*C*C*C*A*G*G*C*C*T*mC*mC*mA*mG*mU (CCAUGTCCCAGGCCTCCAGU; sugars from the 5' end m5 d10 m5, all phosphorothioate, methylation of C not given here) [[CDKN2B-AS1]2227]”, for which the “TLR9-500 nM: averaged NF-κB-Luciferase relative to ODN2006” value was 48.79%.

As for “mC*mC*mC*mU*mA*A*T*G*C*T*T*T*C*C*T*mC*mU*mC*mC*mA (mC*mC*mC*mU*mA*dA*dT*dG*dC*dT*dT*dT*dC*dC*dT*mC*mU*mC*mC*mA; antisense) [[LINC-PINT1877 KL]”, the “TLR9-500 nM: averaged NF-κB-Luciferase relative to ODN2006” value is 86.47%.

Take “mC*mC*mC*mU*mU*C*T*C*T*C*T*G*G*T*C*mC*mC*mA*mU*mC (mC*mC*mC*mU*mU*dC*dT*dC*dT*dC*dT*dG*dG*dT*dC*mC*mC*mA*mU*mC; antisense) [[LINC-PINT]114]”: the “TLR9-500 nM: averaged NF-κB-Luciferase relative to ODN2006” value stood at 62.09%.

In the case of “mC*mC*mU*mA*mG*A*A*A*G*A*A*G*C*A*A*mA*mG*mA*mU*mU (mC*mC*mU*mA*mG*dA*dA*dA*dG*dA*dA*dG*dC*dA*dA*mA*mG*mA*mU*mU) [[CDKN2B-AS1]1522]”, the “TLR9-500 nM: averaged NF-κB-Luciferase relative to ODN2006” value is 42.44%.

On to “mC*mC*mU*mU*mC*T*C*T*C*T*G*GT*C*C*mC*mA*mU*mC*mC (CCUUCTCTCTGGTCCCAUCC; antisense; chemistry not fully specified) [[LINC-PINT]113]”, for which the “TLR9-500 nM: averaged NF-κB-Luciferase relative to ODN2006” value came to 55.47%.

As to “mC*mC*mU*mU*mC*T*G*C*T*G*C*C*A*A*G*mC*mC*mC*mC*mA (mC*mC*mU*mU*mC*dT*dG*dC*dT*dG*dC*dC*dA*dA*dG*mC*mC*mC*mC*mA; antisense) [[LINC-PINT]94]”, the “TLR9-500 nM: averaged NF-κB-Luciferase relative to ODN2006” value amounted to 96.69%.

Consider “mC*mU*mC*mU*mC*T*G*G*T*C*C*C*A*T*C*mC*mC*mU*mU*mC (mC*mU*mC*mU*mC*dT*dG*dG*dT*dC*dC*dC*dA*dT*dC*mC*mC*mU*mU*mC; antisense) [[LINC-PINT]109]”, for which the “TLR9-500 nM: averaged NF-κB-Luciferase relative to ODN2006” value was determined as 89.85%.

For “mC*mU*mU*mC*mU*C*T*C*T*G*G*T*C*C*C*mA*mU*mC*mC*mC (mC*mU*mU*mC*mU*dC*dT*dC*dT*dG*dG*dT*dC*dC*dC*mA*mU*mC*mC*mC) [[LINC-PINT]112]”, the “TLR9-500 nM: averaged NF-κB-Luciferase relative to ODN2006” value worked out at 64.35%.

On to “mC*mU*mU*mU*mA*T*A*T*T*A*C*A*A*A*G*mC*mU*mA*mC*mU (mC*mU*mU*mU*mA*dT*dA*dT*dT*dA*dC*dA*dA*dA*dG*mC*mU*mA*mC*mU; antisense) [[LINC-PINT]2755]”, for which the “TLR9-500 nM: averaged NF-κB-Luciferase relative to ODN2006” value amounted to 84.43%.

As for “mG*mA*mA*mA*mA*G*A*T*T*A*T*C*T*T*C*mU*mU*mU*mU*mA (GAAAAGATTATCTTCUUUUA; sugars from the 5' end m5 d10 m5, all phosphorothioate, methylation of C not given here) [[CDKN2B-AS1]2134]”, the “TLR9-500 nM: averaged NF-κB-Luciferase relative to ODN2006” value was determined as 61.11%.

On to “mG*mA*mU*mG*mG*T*T*C*C*A*G*T*C*C*C*mU*mC*mU*mU*mC (GAUGGTTCCAGTCCCUCUUC; antisense; sugars from the 5' end m5 d10 m5, all phosphorothioate, methylation of C not given here) [[LINC-PINT]1497.1]”, for which the “TLR9-500 nM: averaged NF-κB-Luciferase relative to ODN2006” value was 80.47%.

Turning to “mG*mA*mU*mU*mA*A*A*A*C*A*G*A*T*T*A*mA*mU*mA*mC*mA (mG*mA*mU*mU*mA*dA*dA*dA*dC*dA*dG*dA*dT*dT*dA*mA*mU*mA*mC*mA) [[CDKN2B-AS1]1773]”, the “TLR9-500 nM: averaged NF-κB-Luciferase relative to ODN2006” value is 44.97%.

Regarding “mG*mC*mA*mA*mG*G*C*A*G*A*G*A*A*A*C*mU*mC*mC*mA*mG (GCAAGGCAGAGAAACUCCAG; sugars from the 5' end m5 d10 m5, all phosphorothioate, methylation of C not given here) [[LINC-PINT]1315 KL]”, the “TLR9-500 nM: averaged NF-κB-Luciferase relative to ODN2006” value is 53.46%.

In the case of “mG*mC*mG*mU*mA*G*T*T*T*C*T*C*T*T*C*mC*mU*mC*mC*mC (GCGUAGTTTCTCTTCCUCCC; sugars from the 5' end m5 d10 m5, all phosphorothioate, methylation of C not given here) [[LINC-PINT]935 KL]”, the “TLR9-500 nM: averaged NF-κB-Luciferase relative to ODN2006” value is given as 52.04%.

For “mG*mG*mA*mU*mU*A*A*A*A*C*A*G*A*T*T*mA*mA*mU*mA*mC (GGAUUAAAACAGATTAAUAC; sugars from the 5' end m5 d10 m5, all phosphorothioate, methylation of C not given here) [[CDKN2B-AS1]1774]”, the “TLR9-500 nM: averaged NF-κB-Luciferase relative to ODN2006” value amounted to 27.79%.

As for “mG*mG*mG*mU*mC*T*C*C*T*C*C*A*C*A*C*mC*mC*mU*mU*mC (GGGUCTCCTCCACACCCUUC; antisense; sugars from the 5' end m5 d10 m5, all phosphorothioate, methylation of C not given here) [[LINC-PINT]128]”, the “TLR9-500 nM: averaged NF-κB-Luciferase relative to ODN2006” value was found to be 94.51%.

“mG*mG*mU*mC*mC*C*A*T*C*C*C*T*T*C*T*mG*mC*mU*mG*mC (GGUCCCATCCCTTCTGCUGC; sugars from the 5' end m5 d10 m5, all phosphorothioate, methylation of C not given here) [[LINC-PINT]103]”: the “TLR9-500 nM: averaged NF-κB-Luciferase relative to ODN2006” value turned out to be 88.75%.

Regarding “mG*mG*mU*mC*mU*C*C*T*C*C*A*C*A*C*C*mC*mU*mU*mC*mU (mG*mG*mU*mC*mU*dC*dC*dT*dC*dC*dA*dC*dA*dC*dC*mC*mU*mU*mC*mU; antisense) [[LINC-PINT]127]”, the “TLR9-500 nM: averaged NF-κB-Luciferase relative to ODN2006” value is recorded as 77.91%.

For the substance “mG*mG*mU*mG*mG*C*C*A*C*A*G*G*C*A*A*mC*mG*mU*mC*mA (GGUGGCCACAGGCAACGUCA; antisense; sugars from the 5' end m5 d10 m5, all phosphorothioate, methylation of C not given here) [[CDKN2B-AS1]2196]”, the “TLR9-500 nM: averaged NF-κB-Luciferase relative to ODN2006” value is listed as 97.04%.

As for “mG*mU*mC*mA*mA*A*C*C*T*A*G*A*A*A*G*mA*mA*mG*mC*mA (mG*mU*mC*mA*mA*dA*dC*dC*dT*dA*dG*dA*dA*dA*dG*mA*mA*mG*mC*mA; antisense) [[CDKN2B-AS1]1528]”, the “TLR9-500 nM: averaged NF-κB-Luciferase relative to ODN2006” value is given as 68.13%.

With “mG*mU*mC*mC*mC*A*G*G*C*C*T*C*C*A*G*mU*mG*mU*mC*mU (mG*mU*mC*mC*mC*dA*dG*dG*dC*dC*dT*dC*dC*dA*dG*mU*mG*mU*mC*mU; antisense) [[CDKN2B-AS1]2223]”, the “TLR9-500 nM: averaged NF-κB-Luciferase relative to ODN2006” value stood at 67.61%.

Consider “mG*mU*mC*mC*mC*A*T*C*C*C*T*T*C*T*G*mC*mU*mG*mC*mC (GUCCCATCCCTTCTGCUGCC; antisense; sugars from the 5' end m5 d10 m5, all phosphorothioate, methylation of C not given here) [[LINC-PINT]102]”, for which the “TLR9-500 nM: averaged NF-κB-Luciferase relative to ODN2006” value turned out to be 101.22%.

As for “mG*mU*mC*mC*mG*T*A*C*C*T*C*C*A*C*C*mC″mA*mC*mC*mG [[LINC-PINT]727.1]”, the “TLR9-500 nM: averaged NF-κB-Luciferase relative to ODN2006” value turned out to be 58.15%.

On to “mG*mU*mC*mU*mC*C*T*C*C*A*C*A*C*C*C*mU*mU*mC*mU*mC (mG*mU*mC*mU*mC*dC*dT*dC*dC*dA*dC*dA*dC*dC*dC*mU*mU*mC*mU*mC; antisense) [[LINC-PINT]126]”, for which the “TLR9-500 nM: averaged NF-κB-Luciferase relative to ODN2006” value was 77.09%.

Consider “mG*mU*mU*mC*mA*G*T*C*A*G*A*T*C*G*C*mU*mG*mG*mG*mA (mG*mU*mU*mC*mA*dG*dT*dC*dA*dG*dA*dT*dC*dG*dC*mU*mG*mG*mG*mA) [[LINC-PINT]412 KL]”, for which the “TLR9-500 nM: averaged NF-κB-Luciferase relative to ODN2006” value amounted to 77.50%.

Source of the values: patent publication US20240384268A1, “Oligonucleotides” (Hudson Institute of Medical Research, priority 2021, published 2024).
